PubChem BioAssay AID1963837 (Molecular Pharmacology Branch, DTP, NCI, 2024)
Several values for one entry are separate records, joined by “and”; a condition that tells them apart may be missing. Identical values can stand only once.

Tested on: 843126-344-R-J1-PDC complex spheroid viability
Assay: Anticancer human tumor 843126-344-R-J1-PDC patient-derived melanoma cell line growth inhibition [POLQ]
Conditions: for viability, T/C: stronger effect = lower value; active = viability on the fitted dose curve at most 10% of control; inactive = the rest
Procedure: Multicellular complex tumor spheroid response to Polymerase (POL) inhibitors (novobiocin, ART-558, RP6685) in combination with a variety of drugs and investigational agents in selected tumor cell lines
The POL inhibitors (novobiocin, ART-558, and RP6685) were evaluated both individually and in combination with standard of care and investigational anticancer small molecules within a complex spheroid model of solid tumors. . Complex spheroids include a stromal component modeled by human endothelial cells (HUVEC) and fibroblasts modeled by human mesenchymal stem cells (MSCs). The concentration ranges selected for each drug and investigational agent were based upon clinically achievable concentrations if the clinical Cmax of the agent was known.
Compounds. The drugs and investigational agents: novobiocin (NSC847541), ART-558 (NSC835418), RP-6685 (NSC848927), peposertib (NSC802822), ceralasertib (NSC780249), elimusertib (NSC800525), camonsertib (NSC841442), AZD-1390 (NSC803789), olaparib (NSC753686), talazoparib (NSC767125), rucaparib (NSC756644), sotorasib (NSC818433), MRTX-1133 (NSC836407), SN-38 (NSC673596), topotecan (NSC609699), epotoside (NSC141540), doxorubicin (NSC123127), gemcitabine (NSC613327), 5-fluorouracil (NSC19893), paclitaxel (NSC125973), vemurafenib (NSC761431), MSA-2 (NSC828583), SN-011 (NSC837082), adavosertib (NSC754352), prexasertib (NSC758257), carboplatin (NSC241240) and oxaliplatin (NSC266046), were obtained from the National Cancer Institute (NCI) Developmental Therapeutics Program Chemical Repository (21). The FDA-approved anticancer drug set is available from the Developmental Therapeutics Program at https://dtp.cancer.gov/organization/dscb/obtaining/. […] The stock solutions were prepared in dimethyl sulfoxide (DMSO, Sigma-Aldrich, St. Louis, MO, cat. D2650), except for the platinum compounds which were prepared in saline (Quality Biological, Gaithersburg, MD, cat. 114-055-101), at 800-fold the tested concentration and stored at -70 degrees C prior to their use. All drugs and investigational agents were tested over a range starting from a high concentration at or near the clinical Cmax and decreasing in half-log increments. If the clinical Cmax for an agent had not been determined, the highest concentration tested was 10 microM, except for SN-38, which was tested at a high concentration of 1 microM.
Cell Culture. All cells were maintained in an incubator at 37 degrees C and 5% CO2 with 95% humidity. The PDC lines were cultured according to standard operating procedures established by the NCI PDMR (https://pdmr.cancer.gov). Table 3 of the manuscript, lists the cell lines along with the number of the three cell types plated to form the mct-spheroids and media for tumor cell growth. After thawing, all PDC lines, except 997537-175-T-J1-PDC and 415267-285-R-J2-PDC, were cultured in Matrigel-coated flasks prepared with a working solution of 1X Ham's F-12 nutrient mix, without supplementation (Thermo Fisher Scientific, cat. 11765054), 100 U/mL penicillin-streptomycin (Thermo Fisher Scientific, cat. 15140122), and 2.5% Matrigel (Corning Inc., Corning, NY, cat. 354248) for the first three passages. The two PDC lines 997537-175-T-J1-PDC and 415267-285-R-J2-PDC were cultured on uncoated flasks. The 857933-349-R-J2-PDC line was cultured in 6C/Colon 1B media containing advanced DMEM/F-12 (Thermo Fisher Scientific, cat. 12634028), 10 mM HEPES (Thermo Fisher Scientific, cat. 15630080), 1X GlutaMAX supplement (Thermo Fisher Scientific, cat. 35050061), 0.1 mg/mL primocin (InvivoGen, San Diego, CA, cat. ant-pm-2), 10% defined fetal bovine serum, heat inactivated (HyClone Laboratories Inc., Logan, UT, cat. SH30070.03HI), 50% L-WRN conditioned media (ATCC, cat. CRL-3276), 1.25 mM N-Acetyl-L-cysteine (Sigma-Aldrich, cat. A9165), 10 mM nicotinamide (Sigma-Aldrich, cat. N0636), 1X B-27 supplement (Thermo Fisher Scientific, cat. 17504044), 1X N-2 supplement (Thermo Fisher Scientific, cat. […]
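For viability, T/C in this document: spheroids exposed to drugs for seven days before readout.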

COc1cc(C2c3cc4c(cc3C(OC3OC5COC(C)OC5C(O)C3O)C3COC(=O)C23)OCO4)cc(OC)c1O (stereo not given) + COC1C(OC(N)=O)C(O)C(Oc2ccc3c(O)c(NC(=O)c4ccc(O)c(CC=C(C)C)c4)c(=O)oc3c2C)OC1(C)C
7.76 µM: IC50 (curve of first compound, second compound 10 µM)
9.06 µM: IC50 (curve of first compound, second compound 1 µM)
inactive: viability, T/C (second compound 0.0316 µM, first compound 0.0316 µM) 86% | viability, T/C (second compound 0.0316 µM, first compound 0.1 µM) 89.4% | viability, T/C (second compound 0.0316 µM, first compound 0.316 µM) 95.3% | viability, T/C (second compound 0.0316 µM, first compound 1 µM) 79.8% | viability, T/C (second compound 0.0316 µM, first compound 3.16 µM) 57% | viability, T/C (second compound 0.0316 µM, first compound 10 µM) 50.8% | viability, T/C (second compound 0.1 µM, first compound 0.0316 µM) 102% | viability, T/C (second compound 0.1 µM, first compound 0.1 µM) 91.3% | viability, T/C (second compound 0.1 µM, first compound 0.316 µM) 88.2% | viability, T/C (second compound 0.1 µM, first compound 1 µM) 86% | viability, T/C (second compound 0.1 µM, first compound 3.16 µM) 60% | viability, T/C (second compound 0.1 µM, first compound 10 µM) 54.5% | viability, T/C (second compound 0.316 µM, first compound 0.0316 µM) 98% | viability, T/C (second compound 0.316 µM, first compound 0.1 µM) 89.3% | viability, T/C (second compound 0.316 µM, first compound 0.316 µM) 97.5% | viability, T/C (second compound 0.316 µM, first compound 1 µM) 83.6% | viability, T/C (second compound 0.316 µM, first compound 3.16 µM) 60.7% | viability, T/C (second compound 0.316 µM, first compound 10 µM) 52.1% | viability, T/C (second compound 1 µM, first compound 0.0316 µM) 81.8% | viability, T/C (second compound 1 µM, first compound 0.1 µM) 82.6% | viability, T/C (second compound 1 µM, first compound 0.316 µM) 97% | viability, T/C (second compound 1 µM, first compound 1 µM) 82.1% | viability, T/C (second compound 1 µM, first compound 3.16 µM) 78.9% | viability, T/C (second compound 1 µM, first compound 10 µM) 47.3% | viability, T/C (second compound 3.16 µM, first compound 0.0316 µM) 85.8% | viability, T/C (second compound 3.16 µM, first compound 0.1 µM) 93.6% | viability, T/C (second compound 3.16 µM, first compound 0.316 µM) 89.5% | viability, T/C (second compound 3.16 µM, first compound 1 µM) 91% | viability, T/C (second compound 3.16 µM, first compound 3.16 µM) 64.4% | viability, T/C (second compound 3.16 µM, first compound 10 µM) 57.8% | viability, T/C (second compound 10 µM, first compound 0.0316 µM) 114% | viability, T/C (second compound 10 µM, first compound 0.1 µM) 96.3% | viability, T/C (second compound 10 µM, first compound 0.316 µM) 91.8% | viability, T/C (second compound 10 µM, first compound 1 µM) 85.1% | viability, T/C (second compound 10 µM, first compound 3.16 µM) 58.5% | viability, T/C (second compound 10 µM, first compound 10 µM) 47.2%
> 10 µM: IC50 (curve of first compound, second compound 0.0316 µM) | IC50 (curve of first compound, second compound 0.1 µM) | IC50 (curve of first compound, second compound 0.316 µM) | IC50 (curve of first compound, second compound 3.16 µM)

CC(C)n1c(=O)n(C)c2cnc3cc(F)c(-c4ccc(OCCCN5CCCCC5)nc4)cc3c21
> 10 µM: IC50 (curve of compound)
inactive: viability, T/C (compound 0.0316 µM) 88.2% and 82.8% and 83.5% | viability, T/C (compound 0.1 µM) 74.9% and 88.6% and 77.2% | viability, T/C (compound 0.316 µM) 89% and 79.8% and 78.8% | viability, T/C (compound 1 µM) 86.1% and 87.7% and 92.9% | viability, T/C (compound 3.16 µM) 72.1% and 79.5% and 84.4% | viability, T/C (compound 10 µM) 72.5% and 79.1% and 55.2%

COc1ccc([C@@H](O)c2cc(-c3ncnc4cc(N5CCOCC5)ccc34)c(F)cc2Cl)nn1
inactive: viability, T/C (compound 0.0316 µM) 103% and 80.6% and 95.7% | viability, T/C (compound 0.1 µM) 84.7% and 89.8% and 74.2% | viability, T/C (compound 0.316 µM) 92.1% and 102% and 93.4% | viability, T/C (compound 1 µM) 112% and 87.3% and 81.3% | viability, T/C (compound 3.16 µM) 86.4% and 73.3% and 59.9% | viability, T/C (compound 10 µM) 66.4% and 71.2% and 48.2%
> 10 µM and 8.43 µM: IC50 (curve of compound)

C=CC(=O)N1CCN(c2nc(=O)n(-c3c(C)ccnc3C(C)C)c3nc(-c4c(O)cccc4F)c(F)cc23)C(C)C1 (stereo not given)
> 10 µM: IC50 (curve of compound)
inactive: viability, T/C (compound 0.0316 µM) 96.7% and 98.3% and 89.5% | viability, T/C (compound 0.1 µM) 85.1% and 110% and 73.2% | viability, T/C (compound 0.316 µM) 104% and 107% and 95.8% | viability, T/C (compound 1 µM) 104% and 85.4% and 106% | viability, T/C (compound 3.16 µM) 92.8% and 96.1% and 113% | viability, T/C (compound 10 µM) 67.2% and 91% and 79.3%

CC1COCCN1c1cc(C2(O)CC3CCC(C2)O3)c2cnn(-c3ccn[nH]3)c2n1 (stereo not given)
inactive: viability, T/C (compound 0.0316 µM) 93.2% and 82.1% and 81.5% | viability, T/C (compound 0.1 µM) 66.9% and 57.4% and 68.6% | viability, T/C (compound 0.316 µM) 63.7% and 52.7% and 51.1% | viability, T/C (compound 1 µM) 38% and 44.3% and 35.9% | viability, T/C (compound 3.16 µM) 29.8% and 23.2% and 26% | viability, T/C (compound 10 µM) 20% and 15.3% and 18.9%
0.527 µM and 0.355 µM and 0.353 µM: IC50 (curve of compound)
